Tested on: 695427-040-R-J1-PDC complex spheroids, viability percent T/C
Test: Anticancer human tumor 695427-040-R-J1-PDC patient-derived colon adenocarcinoma cell line growth inhibition [GQUAD]
Settings: for IC50: curve of first compound; for viability, T/C: stronger effect = lower value
Summary of the method: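 Viability of tumor cells grown as complex spheroids with endothelial and stromal cells, exposed to drug combinations. Top concentration at or near clinical Cmax (else 10 microM), diluted in half-log increments.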

[1] = second compound 0.0316 µM, first compound 0.0316 µM
[2] = second compound 0.0316 µM, first compound 0.1 µM
[3] = second compound 0.0316 µM, first compound 0.316 µM
[4] = second compound 0.0316 µM, first compound 1 µM
[5] = second compound 0.0316 µM, first compound 3.16 µM
[6] = second compound 0.0316 µM, first compound 10 µM
[7] = second compound 0.1 µM, first compound 0.0316 µM
[8] = second compound 0.1 µM, first compound 0.1 µM
[9] = second compound 0.1 µM, first compound 0.316 µM
[10] = second compound 0.1 µM, first compound 1 µM
[11] = second compound 0.1 µM, first compound 3.16 µM
[12] = second compound 0.1 µM, first compound 10 µM
[13] = second compound 0.316 µM, first compound 0.0316 µM
[14] = second compound 0.316 µM, first compound 0.1 µM
[15] = second compound 0.316 µM, first compound 0.316 µM
[16] = second compound 0.316 µM, first compound 1 µM
[17] = second compound 0.316 µM, first compound 3.16 µM
[18] = second compound 0.316 µM, first compound 10 µM
[19] = second compound 1 µM, first compound 0.0316 µM
[20] = second compound 1 µM, first compound 0.1 µM
[21] = second compound 1 µM, first compound 0.316 µM
[22] = second compound 1 µM, first compound 1 µM
[23] = second compound 1 µM, first compound 3.16 µM
[24] = second compound 1 µM, first compound 10 µM
[25] = second compound 3.16 µM, first compound 0.0316 µM
[26] = second compound 3.16 µM, first compound 0.1 µM
[27] = second compound 3.16 µM, first compound 0.316 µM
[28] = second compound 3.16 µM, first compound 1 µM
[29] = second compound 3.16 µM, first compound 3.16 µM
[30] = second compound 3.16 µM, first compound 10 µM
[31] = second compound 10 µM, first compound 0.0316 µM
[32] = second compound 10 µM, first compound 0.1 µM
[33] = second compound 10 µM, first compound 0.316 µM
[34] = second compound 10 µM, first compound 1 µM
[35] = second compound 10 µM, first compound 3.16 µM
[36] = second compound 10 µM, first compound 10 µM
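Note: spheroids exposed to compounds for seven days before readout.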

In the case of `O=C(c1cc(Cc2n[nH]c(=O)c3ccccc23)ccc1F)N1CCN(C(=O)C2CC2)CC1` + Cc1cnc(CNC(=O)c2c(=O)c3ccc(N4CCCN(C)CC4)nc3n3c2sc2ccccc23)cn1, the IC50 (second compound 0.0316 µM) is reported as > 10 µM, the IC50 (second compound 0.1 µM) is reported as > 10 µM and the IC50 (second compound 0.316 µM) is reported as > 10 µM. The IC50 (second compound 1 µM) was > 10 µM, the IC50 (second compound 3.16 µM) was > 10 µM and the IC50 (second compound 10 µM) was < 0.0316 µM. It also gave a viability, T/C [1] of 94.2%, a viability, T/C [2] of 101% and a viability, T/C [3] of 93.5%. The viability, T/C [4] was 77.7%, the viability, T/C [5] was 83.5% and the viability, T/C [6] was 90.9%. For the same compound, the viability, T/C [7] was 102%, the viability, T/C [8] was 79% and the viability, T/C [9] was 95.5%. The viability, T/C [10] was 57%, the viability, T/C [11] was 92.7% and the viability, T/C [12] was 87.3%. For the same compound, the viability, T/C [13] was 95.4%, the viability, T/C [14] was 63% and the viability, T/C [15] was 91.9%. It also gave a viability, T/C [16] of 74.7%, a viability, T/C [17] of 86.8% and a viability, T/C [18] of 80.8%. The viability, T/C [19] was 60.3%, the viability, T/C [20] was 69.6% and the viability, T/C [21] was 53.8%. It also gave a viability, T/C [22] of 57.4%, a viability, T/C [23] of 71% and a viability, T/C [24] of 66.2%. The viability, T/C [25] was 52.9%, the viability, T/C [26] was 53.3% and the viability, T/C [27] was 53.5%. It also gave a viability, T/C [28] of 46.6%, a viability, T/C [29] of 62.6% and a viability, T/C [30] of 51.1%. It also gave a viability, T/C [31] of 32.1%, a viability, T/C [32] of 53.5% and a viability, T/C [33] of 49.9%. For the same compound, the viability, T/C [34] was 48%, the viability, T/C [35] was 48.1% and the viability, T/C [36] was 40.2%.
For `Nc1ccn(C2OC(CO)C(O)C2(F)F)c(=O)n1` (stereo not given) + Cc1[nH]c2ccc(F)cc2c1-c1nc2c3cccnc3c3ncccc3c2[nH]1, the IC50 (second compound 0.0316 µM) was > 10 µM, the IC50 (second compound 0.1 µM) was > 10 µM and the IC50 (second compound 0.316 µM) was > 10 µM. The IC50 (second compound 1 µM) was > 10 µM, the IC50 (second compound 3.16 µM) was 1.65 µM and the IC50 (second compound 10 µM) was 1.44 µM. The viability, T/C [1] was 78.4%, the viability, T/C [2] was 74.8% and the viability, T/C [3] was 71.3%. The viability, T/C [4] was 54.6%, the viability, T/C [5] was 56.4% and the viability, T/C [6] was 46.7%. For the same compound, the viability, T/C [7] was 92.2%, the viability, T/C [8] was 75.1% and the viability, T/C [9] was 59%. It also gave a viability, T/C [10] of 54.1%, a viability, T/C [11] of 60.5% and a viability, T/C [12] of 52.1%. For the same compound, the viability, T/C [13] was 86%, the viability, T/C [14] was 70.8% and the viability, T/C [15] was 64.4%. The viability, T/C [16] was 55.1%, the viability, T/C [17] was 66.6% and the viability, T/C [18] was 46.5%. The viability, T/C [19] was 87.3%, the viability, T/C [20] was 64.6% and the viability, T/C [21] was 59.2%. It also gave a viability, T/C [22] of 57.9%, a viability, T/C [23] of 63.1% and a viability, T/C [24] of 48.8%. It also gave a viability, T/C [25] of 67.6%, a viability, T/C [26] of 55.4% and a viability, T/C [27] of 55.5%. The viability, T/C [28] was 53.3%, the viability, T/C [29] was 51.4% and the viability, T/C [30] was 39.8%. The viability, T/C [31] was 63.2%, the viability, T/C [32] was 59.4% and the viability, T/C [33] was 57.8%. The viability, T/C [34] was 51%, the viability, T/C [35] was 43% and the viability, T/C [36] was 47.4%.
Work on `CC(C)(O)C1CCC(Nc2ccc3ncc(-c4cccc(C(F)(F)F)c4)n3n2)CC1` (stereo not given) + CN(C)c1ccc(Nc2c3ccc(NC(=O)CCN4CCCC4)cc3nc3cc(NC(=O)CCN4CCCC4)ccc23)cc1 yielded an IC50 (second compound 0.0316 µM) of 1.59 µM, an IC50 (second compound 0.1 µM) of 1.67 µM and an IC50 (second compound 0.316 µM) of 1.61 µM. For the same compound, the IC50 (second compound 1 µM) was 1.59 µM, the IC50 (second compound 3.16 µM) was 1.53 µM and the IC50 (second compound 10 µM) was 1.47 µM. For the same compound, the viability, T/C [1] was 102%, the viability, T/C [2] was 91.7% and the viability, T/C [3] was 87.4%. The viability, T/C [4] was 73.4%, the viability, T/C [5] was 15.2% and the viability, T/C [6] was 14.3%. The viability, T/C [7] was 106%, the viability, T/C [8] was 97% and the viability, T/C [9] was 108%. The viability, T/C [10] was 78.8%, the viability, T/C [11] was 14.7% and the viability, T/C [12] was 12.1%. The viability, T/C [13] was 105%, the viability, T/C [14] was 96.9% and the viability, T/C [15] was 94.9%. It also gave a viability, T/C [16] of 74%, a viability, T/C [17] of 15.2% and a viability, T/C [18] of 16.6%. The viability, T/C [19] was 95%, the viability, T/C [20] was 100% and the viability, T/C [21] was 90.9%. It also gave a viability, T/C [22] of 74.9%, a viability, T/C [23] of 13% and a viability, T/C [24] of 13.6%. For the same compound, the viability, T/C [25] was 91.9%, the viability, T/C [26] was 92.2% and the viability, T/C [27] was 89.5%. The viability, T/C [28] was 71.3%, the viability, T/C [29] was 13.2% and the viability, T/C [30] was 11.4%. The viability, T/C [31] was 84.7%, the viability, T/C [32] was 81.3% and the viability, T/C [33] was 75.9%. It also gave a viability, T/C [34] of 69.4%, a viability, T/C [35] of 11.8% and a viability, T/C [36] of 10%.
For `O=C(NO)c1cnc(N2CCN(S(=O)(=O)c3ccc4ccccc4c3)CC2)nc1` + Cc1cnc(CNC(=O)c2c(=O)c3ccc(N4CCCN(C)CC4)nc3n3c2sc2ccccc23)cn1, the IC50 (second compound 0.0316 µM) was 0.418 µM, the IC50 (second compound 0.1 µM) was 0.445 µM and the IC50 (second compound 0.316 µM) was 0.281 µM. For the same compound, the IC50 (second compound 1 µM) was 0.172 µM, the IC50 (second compound 3.16 µM) was < 0.0316 µM and the IC50 (second compound 10 µM) was < 0.0316 µM. The viability, T/C [1] was 91.1%, the viability, T/C [2] was 78.5% and the viability, T/C [3] was 64.4%. For the same compound, the viability, T/C [4] was 6.15%, the viability, T/C [5] was 0.22% and the viability, T/C [6] was 0.22%. It also gave a viability, T/C [7] of 87.2%, a viability, T/C [8] of 65.5% and a viability, T/C [9] of 68.3%. For the same compound, the viability, T/C [10] was 7.35%, the viability, T/C [11] was 0.34% and the viability, T/C [12] was 0.28%. For the same compound, the viability, T/C [13] was 85.3%, the viability, T/C [14] was 70.1% and the viability, T/C [15] was 49.8%. It also gave a viability, T/C [16] of 6.3%, a viability, T/C [17] of 0.18% and a viability, T/C [18] of 0.19%. The viability, T/C [19] was 56.4%, the viability, T/C [20] was 58.3% and the viability, T/C [21] was 41.7%. The viability, T/C [22] was 0.29%, the viability, T/C [23] was 0.1% and the viability, T/C [24] was 0.17%. For the same compound, the viability, T/C [25] was 48.4%, the viability, T/C [26] was 45.6% and the viability, T/C [27] was 23.1%. The viability, T/C [28] was 0.14%, the viability, T/C [29] was 0.11% and the viability, T/C [30] was 0.12%. It also gave a viability, T/C [31] of 24.2%, a viability, T/C [32] of 13.8% and a viability, T/C [33] of 0.3%. The viability, T/C [34] was 0.15%, the viability, T/C [35] was 0.17% and the viability, T/C [36] was 0.18%.
With `C#Cc1c(F)ccc2cc(O)cc(-c3ncc4c(N5CC6CCC(C5)N6)nc(OCC56CCCN5CC(F)C6)nc4c3F)c12` (stereo not given) + Cc1cnc(CNC(=O)c2c(=O)c3ccc(N4CCCN(C)CC4)nc3n3c2sc2ccccc23)cn1 the IC50 (second compound 0.0316 µM) was > 10 µM, the IC50 (second compound 0.1 µM) was > 10 µM and the IC50 (second compound 0.316 µM) was > 10 µM. The IC50 (second compound 1 µM) was > 10 µM, the IC50 (second compound 3.16 µM) was < 0.0316 µM and the IC50 (second compound 10 µM) was < 0.0316 µM. For the same compound, the viability, T/C [1] was 103%, the viability, T/C [2] was 94.4% and the viability, T/C [3] was 87.1%. For the same compound, the viability, T/C [4] was 73.2%, the viability, T/C [5] was 76.9% and the viability, T/C [6] was 65.4%. The viability, T/C [7] was 110%, the viability, T/C [8] was 69.8% and the viability, T/C [9] was 85%. The viability, T/C [10] was 71.5%, the viability, T/C [11] was 71.4% and the viability, T/C [12] was 58.7%. The viability, T/C [13] was 82.5%, the viability, T/C [14] was 78.9% and the viability, T/C [15] was 51.1%. The viability, T/C [16] was 65.7%, the viability, T/C [17] was 63.2% and the viability, T/C [18] was 52.2%. For the same compound, the viability, T/C [19] was 79.8%, the viability, T/C [20] was 52.5% and the viability, T/C [21] was 61.8%. For the same compound, the viability, T/C [22] was 60.4%, the viability, T/C [23] was 65% and the viability, T/C [24] was 46.6%. For the same compound, the viability, T/C [25] was 37.6%, the viability, T/C [26] was 51.7% and the viability, T/C [27] was 47.2%. For the same compound, the viability, T/C [28] was 33.4%, the viability, T/C [29] was 47% and the viability, T/C [30] was 30.4%. For the same compound, the viability, T/C [31] was 22.1%, the viability, T/C [32] was 29.2% and the viability, T/C [33] was 41.9%. For the same compound, the viability, T/C [34] was 31.3%, the viability, T/C [35] was 29.9% and the viability, T/C [36] was 0.83%.

— PubChem BioAssay AID2060492 (Molecular Pharmacology Branch, DTP, NCI, 2025)
